Literature values, collected in patent US20070292421A1, “Method for treating preeclampsia” (priority 2005, published 2007).

How the values were obtained:
trophoblast apoptosis = conditions: in vitro
severe sepsis = conditions: OPTIMIST trial
[1] = target: serotonin 5-HT2A receptor (Homo sapiens, UniProt P28223)
[2] = test system: 5-HT2C, 5-HT2B, 5-HT1D, alpha-adrenergic, and dopamine receptors; conditions: relative to 5-HT2A
human C5a receptor = conditions: numerous models of human disease
[3] = test system: antineutrophil cytoplasmic antibody (ANCA) positive patients

Sequence of serotonin 5-HT2A receptor (P28223 whole entry): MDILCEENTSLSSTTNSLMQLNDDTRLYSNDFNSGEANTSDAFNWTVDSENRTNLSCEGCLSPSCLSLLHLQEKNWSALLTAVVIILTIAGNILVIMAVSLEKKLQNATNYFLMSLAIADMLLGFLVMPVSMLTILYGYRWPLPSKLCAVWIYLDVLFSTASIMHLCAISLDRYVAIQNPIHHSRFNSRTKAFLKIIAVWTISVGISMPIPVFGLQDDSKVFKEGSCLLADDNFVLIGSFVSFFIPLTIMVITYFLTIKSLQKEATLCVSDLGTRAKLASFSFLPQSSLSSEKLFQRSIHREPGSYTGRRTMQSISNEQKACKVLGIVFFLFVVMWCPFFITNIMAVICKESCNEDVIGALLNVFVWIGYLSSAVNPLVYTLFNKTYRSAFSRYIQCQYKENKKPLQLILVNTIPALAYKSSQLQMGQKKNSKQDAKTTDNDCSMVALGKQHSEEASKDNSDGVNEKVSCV

heparin
effect on trophoblast apoptosis (trophoblast apoptosis): regulate trophoblast apoptosis

CC(=O)Oc1ccccc1C(=O)O [aspirin]
effect on trophoblast apoptosis (trophoblast apoptosis): regulate trophoblast apoptosis

tifacogin: recombinant TFPI (Chiron Corp/Pharmacia Corp)
treatment of severe sepsis (severe sepsis): failure

O=C(c1ccc(F)cc1)C1CCN(CCn2c(=O)[nH]c3ccccc3c2=O)CC1 [Ketanserin]
affinity [1]: high affinity
binding [2]: binds less potently

Ac-Phe [3D53, Ac-Phe [Orn-Pro-D-Cha-Trp-Arg]]
anti-inflammatory activity (human C5a receptor): excellent anti-inflammatory activity

Rituximab: monoclonal antibody that binds the B cell surface protein CD20 (Roche Pharmaceuticals)
clinical improvement ([3]; n=11 patients combined, added to immunosuppressive drug regimen): clinical improvement in all eleven cases
cases with complete clinical improvement ([3]; of eleven cases): eight
